As usually defined, the IC50 is the midpoint of a concentration-inhibition curve. A lower IC50 goes with higher potency.

The text below walks through data of BindingDB's records for doi:10.1021/jm00054a015 (Merck Research Laboratories, 1993).

This experiment addresses T1, Dimer of Gag-Pol polyprotein [489-587] (Human immunodeficiency virus 1, UniProt P12497).
T1 construct: 489-587
Kind of experiment: Protease Inhibition Assay. Particulars: pH 5.5; 30 °C. As to the method:
Sensitivity of HIV-1 protease activity to protease inhibitors was determined by a peptide substrate cleavage assay. Protease products were analyzed on a reverse-phase high-pressure liquid chromatograph.
The molecule `CC(C)(C)NC(=O)C1C[C@@H]2CCCC[C@@H]2CN1C[C@@H](O)[C@H](Cc1ccccc1)NC(=O)O[C@H]1C=CCOC1` (stereo partly drawn) [(3S)-3,6-dihydro-2H-pyran-3-yl N-[(2S,3R)-4-[(4aS,8aS)-3-(tert-butylcarbamoyl)-decahydroisoquinolin-2-yl]-3-hydroxy-1-phenylbutan-2-yl]carbamate] yielded a half-inhibitory concentration (IC50) of 314 nM.

With `CC(C)(C)NC(=O)C1C[C@@H]2CCCC[C@@H]2CN1C[C@@H](O)[C@H](Cc1ccccc1)NC(=O)OC(C)(C)C` (stereo partly drawn) [tert-butyl N-[(2S,3R)-4-[(4aS,8aS)-3-(tert-butylcarbamoyl)-decahydroisoquinolin-2-yl]-3-hydroxy-1-phenylbutan-2-yl]carbamate], the IC50 was > 3000 nM.

`CC(C)(C)NC(=O)C1C[C@@H]2CCCC[C@@H]2CN1C[C@@H](O)[C@H](Cc1ccccc1)NC(=O)O[C@@H]1CCCOC1` (stereo partly drawn) [(3R)-oxan-3-yl N-[(2S,3R)-4-[(4aS,8aS)-3-(tert-butylcarbamoyl)-decahydroisoquinolin-2-yl]-3-hydroxy-1-phenylbutan-2-yl]carbamate] returned an IC50 of 308 nM.

Turning to `CC(C)(C)NC(=O)C1C[C@@H]2CCCC[C@@H]2CN1C[C@@H](O)[C@H](Cc1ccccc1)NC(=O)O[C@@H]1C=CCOC1` (stereo partly drawn) [(3R)-3,6-dihydro-2H-pyran-3-yl N-[(2S,3R)-4-[(4aS,8aS)-3-(tert-butylcarbamoyl)-decahydroisoquinolin-2-yl]-3-hydroxy-1-phenylbutan-2-yl]carbamate], the IC50 was determined as 48.9 nM.

Take `CC(C)(C)NC(=O)C1C[C@@H]2CCCC[C@@H]2CN1C[C@@H](O)[C@H](Cc1ccccc1)NC(=O)O[C@H]1CCCOC1` (stereo partly drawn) [(3S)-oxan-3-yl N-[(2S,3R)-4-[(4aS,8aS)-3-(tert-butylcarbamoyl)-decahydroisoquinolin-2-yl]-3-hydroxy-1-phenylbutan-2-yl]carbamate]: the IC50 was 392 nM.

As for `O=C(N[C@@H](Cc1ccccc1)[C@@H](O)C[C@@H](Cc1ccccc1)C(=O)N[C@H]1c2ccccc2C[C@H]1O)O[C@H]1CCOC1` [(3S)-oxolan-3-yl N-[(2S,3S,5R)-5-benzyl-3-hydroxy-5-{[(1S,2R)-2-hydroxy-2,3-dihydro-1H-inden-1-yl]carbamoyl}-1-phenylpentan-2-yl]carbamate], the IC50 was < 0.03 nM.

Regarding `O=C(N[C@@H](Cc1ccccc1)[C@@H](O)C[C@@H](Cc1ccccc1)C(=O)N[C@H]1c2ccccc2C[C@H]1O)O[C@@H]1CCCOC1` [(3R)-oxan-3-yl N-[(2S,3S,5R)-5-benzyl-3-hydroxy-5-{[(1S,2R)-2-hydroxy-2,3-dihydro-1H-inden-1-yl]carbamoyl}-1-phenylpentan-2-yl]carbamate], the IC50 was < 0.03 nM.

`O=C(N[C@@H](Cc1ccccc1)[C@@H](O)C[C@@H](Cc1ccccc1)C(=O)N[C@H]1c2ccccc2C[C@H]1O)O[C@H]1CCCOC1` [(3S)-oxan-3-yl N-[(2S,3S,5R)-5-benzyl-3-hydroxy-5-{[(1S,2R)-2-hydroxy-2,3-dihydro-1H-inden-1-yl]carbamoyl}-1-phenylpentan-2-yl]carbamate]: the IC50 is < 0.03 nM.
